# In PubChem BioAssay AID2060328 (Molecular Pharmacology Branch, DTP, NCI, 2025):
# System: MDA-MB-231 multicell spheroids, viability (%T/C)
# Assay: Anticancer human tumor MDA-MB-231 cell line growth inhibition [IpAb];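 note: viability read after seven days of drug exposure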;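 for viability, T/C: 100% = DMSO vehicle control viability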
# Conditions: for IC50: curve of first compound; for viability, T/C: stronger effect = lower value
# Text: Combinatorial screen of targeted agents with ipatasertib and abemaciclib in multi-cell type tumor spheroids
# A high-throughput screen of multi-cell type tumor spheroids was designed to identify active combinations of targeted small molecules and ipatasertib or abemaciclib. Complex spheroids include a stromal component modeled by human endothelial cells (HUVEC) and fibroblasts modeled by human mesenchymal stem cells (MSCs). The concentration ranges selected for each drug and investigational agent were based upon clinically achievable concentrations if the clinical Cmax of the agent was known.
# Compounds. The drugs and investigational agents: ipatasertib (NSC767898), abemaciclib(NSC768073), selumetinib (NSC741078), trametinib (758246), adavosertib (NSC754352), everolimus (NSC733504), sapanisertib (NSC764658), vemurafenib (NSC761431), venetoclax (NSC766270), copanlisib (NSC809693), apelisib (NSC765974), palbociblib (NSC758247), vemurafenib (NSC761431), dabrafenib (NSC764134), ravoxertinib (NSC781343), BMS-387032 (NSC767048), sotorasib (NSC818433), talazoparib (NSC767125) and afursertib (NSC778305), were obtained from the National Cancer Institute (NCI) Developmental Therapeutics Program Chemical Repository. The FDA-approved anticancer drug set is available from the NCI Developmental Therapeutics Program. […] The stock solutions were prepared in dimethyl sulfoxide (DMSO, Sigma-Aldrich, St. Louis, MO, cat. D2650) at 800-fold the tested concentration and stored at -70 degrees C prior to their use. All drugs and investigational agents were tested over a range starting from a high concentration at or near the clinical Cmax and decreasing in half-log increments. If the clinical Cmax for an agent had not been determined, the highest concentration tested was 10 microM.
# NCI60 Cell Culture. NCI60 cell lines were obtained from the NCI Developmental Therapeutics Program Tumor Repository. For each lot of cells, the Repository performed Applied Biosystems AmpFLSTR Identifiler testing with PCR amplification to confirm consistency with the published Identifier STR profile for each cell line. Cells were kept in continuous culture for no more than 20 passages. The optimal seeding densities for each of the cell lines at each time point assessed were determined prior to performing the concentration response studies. Briefly, the NCI60 human tumor lines were grown as monolayers in RPMI 1640 medium supplemented with 10% FBS and 2 mmol/L L-glutamine.
# An additional 9 lines were from the NCI60 cell line panel including MDA-MB-231 breast carcinoma, MDA-MB-468 breast carcinoma, MCF7 breast carcinoma, Hs578T breast carcinoma, MALME-3M melanoma, SK-MEL-2 melanoma, SK-OV-3 ovarian carcinoma, DU-145 prostate carcinoma, PC-3 prostate carcinoma, all cell lines along with major genetic alterations are listed on Table 2. Pooled donor human umbilical vein endothelial cells (HUVEC, Lonza, cat. CC-2519) and human mesenchymal stem cells (hMSC, Lonza, cat. PT-2501) were purchased from Lonza (Walkersville, MD).
# PDMR cell lines were grown in complete medium (DC medium): Dulbecco's modified Eagle's medium (DMEM)/F12 supplemented with 5% fetal bovine serum (FBS), 2 mM L-glutamine, 100 U/mL penicillin and 100 µg/ml streptomycin, 0.4 µg/ml hydrocortisone, 10 ng/ml epidermal growth factor (EGF) recombinant human protein, 24 µg/mL adenine, and 0.1 mg/mL primocin. During culture from frozen stock vials, PDMR cells were cultured in the same medium containing 10 µM Y-27632 (see Table 3). The PDCs were cultured in complete DMEM/F12 media without 10 microM Y-27632 dihydrochloride for at least two passages prior to the screen. The pooled donor HUVEC and hMSC were cultured in endothelial cell growth medium 2 (PromoCell, Heidelberg, Germany, cat. C-22011) and mesenchymal stem cell growth medium 2 (PromoCell, cat. C-28009), respectively. For all experiments, HUVEC and hMSC were used at passages </=5.
# […]
# [1] = second compound 0.1 µM, first compound 0.0316 µM
# [2] = second compound 0.1 µM, first compound 0.1 µM
# [3] = second compound 0.316 µM, first compound 0.0316 µM
# [4] = second compound 0.316 µM, first compound 0.1 µM
# [5] = second compound 1 µM, first compound 0.0316 µM
# [6] = second compound 1 µM, first compound 0.1 µM
compound,measurement,setting,value
Cn1ncnc1[C@H]1c2n[nH]c(=O)c3cc(F)cc(c23)N[C@@H]1c1ccc(F)cc1 + CC(C)NCC(C(=O)N1CCN(c2ncnc3c2C(C)CC3O)CC1)c1ccc(Cl)cc1,IC50,second compound 0.1 µM,> 0.1 µM
same,IC50,second compound 0.316 µM,> 0.1 µM
same,IC50,second compound 1 µM,> 0.1 µM
same,IC50,second compound 3.16 µM,0.00235 µM
same,IC50,second compound 10 µM,< 0.000316 µM
same,"viability, T/C","second compound 0.1 µM, first compound 0.000316 µM",96.6%
same,"viability, T/C","second compound 0.1 µM, first compound 0.001 µM",89.4%
same,"viability, T/C","second compound 0.1 µM, first compound 0.00316 µM",81.9%
same,"viability, T/C","second compound 0.1 µM, first compound 0.01 µM",78.9%
same,"viability, T/C",[1],76.6%
same,"viability, T/C",[2],73.1%
same,"viability, T/C","second compound 0.316 µM, first compound 0.000316 µM",83.9%
same,"viability, T/C","second compound 0.316 µM, first compound 0.001 µM",77%
same,"viability, T/C","second compound 0.316 µM, first compound 0.00316 µM",71.8%
same,"viability, T/C","second compound 0.316 µM, first compound 0.01 µM",70.1%
same,"viability, T/C",[3],69.1%
same,"viability, T/C",[4],62.1%
same,"viability, T/C","second compound 1 µM, first compound 0.000316 µM",70.4%
same,"viability, T/C","second compound 1 µM, first compound 0.001 µM",68.9%
same,"viability, T/C","second compound 1 µM, first compound 0.00316 µM",59.2%
same,"viability, T/C","second compound 1 µM, first compound 0.01 µM",58%
same,"viability, T/C",[5],56.8%
same,"viability, T/C",[6],56.5%
same,"viability, T/C","second compound 3.16 µM, first compound 0.000316 µM",54.6%
same,"viability, T/C","second compound 3.16 µM, first compound 0.001 µM",54.3%
same,"viability, T/C","second compound 3.16 µM, first compound 0.00316 µM",49.6%
same,"viability, T/C","second compound 3.16 µM, first compound 0.01 µM",44.9%
same,"viability, T/C","second compound 3.16 µM, first compound 0.0316 µM",45.7%
same,"viability, T/C","second compound 3.16 µM, first compound 0.1 µM",47%
same,"viability, T/C","second compound 10 µM, first compound 0.000316 µM",42.3%
same,"viability, T/C","second compound 10 µM, first compound 0.001 µM",41%
same,"viability, T/C","second compound 10 µM, first compound 0.00316 µM",38.5%
same,"viability, T/C","second compound 10 µM, first compound 0.01 µM",33.8%
same,"viability, T/C","second compound 10 µM, first compound 0.0316 µM",34.9%
same,"viability, T/C","second compound 10 µM, first compound 0.1 µM",34.1%
C=CCn1c(=O)c2cnc(Nc3ccc(N4CCN(C)CC4)cc3)nc2n1-c1cccc(C(C)(C)O)n1 + CCN1CCN(Cc2ccc(Nc3ncc(F)c(-c4cc(F)c5nc(C)n(C(C)C)c5c4)n3)nc2)CC1,IC50,second compound 0.01 µM,0.239 µM
same,IC50,second compound 0.0316 µM,0.208 µM
same,IC50,second compound 0.1 µM,0.177 µM
same,IC50,second compound 0.316 µM,0.0334 µM
same,IC50,second compound 1 µM,0.325 µM
same,"viability, T/C","second compound 0.01 µM, first compound 0.0316 µM",88.8%
same,"viability, T/C","second compound 0.01 µM, first compound 0.1 µM",85%
same,"viability, T/C","second compound 0.01 µM, first compound 0.316 µM",38.6%
same,"viability, T/C","second compound 0.01 µM, first compound 1 µM",20.3%
same,"viability, T/C","second compound 0.01 µM, first compound 3.16 µM",15.4%
same,"viability, T/C","second compound 0.01 µM, first compound 10 µM",20%
same,"viability, T/C","second compound 0.0316 µM, first compound 0.0316 µM",80.1%
same,"viability, T/C","second compound 0.0316 µM, first compound 0.1 µM",69.3%
same,"viability, T/C","second compound 0.0316 µM, first compound 0.316 µM",38.9%
same,"viability, T/C","second compound 0.0316 µM, first compound 1 µM",23%
same,"viability, T/C","second compound 0.0316 µM, first compound 3.16 µM",17.9%
same,"viability, T/C","second compound 0.0316 µM, first compound 10 µM",20%
same,"viability, T/C",[1],59.8%
same,"viability, T/C",[2],56.8%
same,"viability, T/C","second compound 0.1 µM, first compound 0.316 µM",43.1%
same,"viability, T/C","second compound 0.1 µM, first compound 1 µM",26.1%
same,"viability, T/C","second compound 0.1 µM, first compound 3.16 µM",19.9%
same,"viability, T/C","second compound 0.1 µM, first compound 10 µM",21.2%
same,"viability, T/C",[3],47.4%
same,"viability, T/C",[4],48.7%
same,"viability, T/C","second compound 0.316 µM, first compound 0.316 µM",42.5%
same,"viability, T/C","second compound 0.316 µM, first compound 1 µM",32.9%
same,"viability, T/C","second compound 0.316 µM, first compound 3.16 µM",24.8%
same,"viability, T/C","second compound 0.316 µM, first compound 10 µM",26.4%
same,"viability, T/C",[5],51.8%
same,"viability, T/C",[6],51.7%
same,"viability, T/C","second compound 1 µM, first compound 0.316 µM",50.5%
same,"viability, T/C","second compound 1 µM, first compound 1 µM",48.5%
same,"viability, T/C","second compound 1 µM, first compound 3.16 µM",41%
same,"viability, T/C","second compound 1 µM, first compound 10 µM",36.5%
CC(C)(C)c1cnc(CSc2cnc(NC(=O)C3CCNCC3)s2)o1 + CC(C)NCC(C(=O)N1CCN(c2ncnc3c2C(C)CC3O)CC1)c1ccc(Cl)cc1,IC50,second compound 0.1 µM,0.171 µM
same,IC50,second compound 0.316 µM,0.152 µM
same,IC50,second compound 1 µM,0.14 µM
same,IC50,second compound 3.16 µM,0.109 µM
same,IC50,second compound 10 µM,< 0.00949 µM
same,"viability, T/C","second compound 0.1 µM, first compound 0.00949 µM",110%
same,"viability, T/C","second compound 0.1 µM, first compound 0.03 µM",115%
same,"viability, T/C","second compound 0.1 µM, first compound 0.0949 µM",101%
same,"viability, T/C","second compound 0.1 µM, first compound 0.3 µM",1.85%
same,"viability, T/C","second compound 0.1 µM, first compound 0.949 µM",1.02%
same,"viability, T/C","second compound 0.1 µM, first compound 3 µM",1.06%
same,"viability, T/C","second compound 0.316 µM, first compound 0.00949 µM",94.5%
same,"viability, T/C","second compound 0.316 µM, first compound 0.03 µM",98.8%
same,"viability, T/C","second compound 0.316 µM, first compound 0.0949 µM",83.5%
same,"viability, T/C","second compound 0.316 µM, first compound 0.3 µM",1.35%
same,"viability, T/C","second compound 0.316 µM, first compound 0.949 µM",0.87%
same,"viability, T/C","second compound 0.316 µM, first compound 3 µM",0.98%
same,"viability, T/C","second compound 1 µM, first compound 0.00949 µM",79.2%
same,"viability, T/C","second compound 1 µM, first compound 0.03 µM",84.8%
same,"viability, T/C","second compound 1 µM, first compound 0.0949 µM",74.4%
same,"viability, T/C","second compound 1 µM, first compound 0.3 µM",2.5%
same,"viability, T/C","second compound 1 µM, first compound 0.949 µM",0.85%
same,"viability, T/C","second compound 1 µM, first compound 3 µM",0.86%
same,"viability, T/C","second compound 3.16 µM, first compound 0.00949 µM",61.1%
same,"viability, T/C","second compound 3.16 µM, first compound 0.03 µM",61.7%
same,"viability, T/C","second compound 3.16 µM, first compound 0.0949 µM",56.5%
same,"viability, T/C","second compound 3.16 µM, first compound 0.3 µM",1.57%
same,"viability, T/C","second compound 3.16 µM, first compound 0.949 µM",0.65%
same,"viability, T/C","second compound 3.16 µM, first compound 3 µM",0.78%
same,"viability, T/C","second compound 10 µM, first compound 0.00949 µM",42.1%
same,"viability, T/C","second compound 10 µM, first compound 0.03 µM",43.8%
same,"viability, T/C","second compound 10 µM, first compound 0.0949 µM",35.1%
same,"viability, T/C","second compound 10 µM, first compound 0.3 µM",0.95%
same,"viability, T/C","second compound 10 µM, first compound 0.949 µM",0.79%
same,"viability, T/C","second compound 10 µM, first compound 3 µM",0.8%
